This is an account of results in US11420936B2, “Hypoxia inducible factor-2(alpha) inhibitors and their use in the treatment of diseases” (priority 2020, dated 2022).

HIF-2α/ARNT dimerization, sequence (Q99814 whole entry): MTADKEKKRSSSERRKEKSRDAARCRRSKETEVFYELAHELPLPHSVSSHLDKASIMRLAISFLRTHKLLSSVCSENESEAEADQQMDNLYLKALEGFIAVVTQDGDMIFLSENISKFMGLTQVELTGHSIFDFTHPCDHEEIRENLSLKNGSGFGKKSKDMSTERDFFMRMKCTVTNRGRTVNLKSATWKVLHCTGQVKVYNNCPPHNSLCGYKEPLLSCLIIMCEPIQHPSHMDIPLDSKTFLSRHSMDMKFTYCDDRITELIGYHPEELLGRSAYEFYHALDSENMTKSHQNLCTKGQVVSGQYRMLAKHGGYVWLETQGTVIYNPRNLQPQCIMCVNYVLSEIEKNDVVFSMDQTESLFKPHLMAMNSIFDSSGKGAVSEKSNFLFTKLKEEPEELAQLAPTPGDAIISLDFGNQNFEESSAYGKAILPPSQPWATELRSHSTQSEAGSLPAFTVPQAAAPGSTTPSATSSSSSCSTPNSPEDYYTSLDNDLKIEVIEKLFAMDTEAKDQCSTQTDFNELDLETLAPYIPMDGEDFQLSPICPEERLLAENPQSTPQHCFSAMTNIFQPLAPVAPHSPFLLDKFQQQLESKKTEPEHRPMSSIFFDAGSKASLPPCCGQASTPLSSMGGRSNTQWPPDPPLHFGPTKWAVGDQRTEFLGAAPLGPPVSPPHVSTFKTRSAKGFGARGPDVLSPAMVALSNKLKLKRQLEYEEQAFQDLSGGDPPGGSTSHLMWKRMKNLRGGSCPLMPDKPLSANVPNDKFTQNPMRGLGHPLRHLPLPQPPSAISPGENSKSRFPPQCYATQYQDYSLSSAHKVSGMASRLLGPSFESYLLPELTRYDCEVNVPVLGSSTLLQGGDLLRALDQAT

For one assay, the target named is HIF-2α (Homo sapiens (Human), UniProt Q99814). Briefly: cell-based. Type of assay: cell-based.
HIF-2α, sequence (Q99814 whole entry): as above
Conditions: not given
As for the experimental part:
The ability of the disclosed compounds to inhibit HIF-2α was measured by determining VEGF expression in 786-O cells. About 7500 786-O cells were seeded into each well of a 96-well, white, clear bottom plate (07-200-566, Fisher Scientific) with 200 ul growth medium. Four hours later, compounds were dispensed into wells by Tecan D300e digital dispenser with starting concentration of 10 uM and ½ log of dilution down to 1 nM as final concentration. Each concentration of treatment was performed in duplicate. About 20 hours later, medium was removed and fresh medium was added, followed by compounds treatment as described above. 24 hours later, cell culture medium was collected to determine VEGF concentration using an ELISA kit (R&D systems, cat #DVE00) following the manufacturer's instruction.
The EC50 is calculated by GraphPad Prism using the dose-response-inhibition (four parameter) equation. The plate with cells was then subjected to CellTiter-Glo luminescence cell viability assay (Promega) to determine the effect of these compounds on cell numbers after the above treatment.
As usually defined, the EC50 is the concentration that produces a half-maximal response. On to `[2H]C1([2H])[C@@]2(O)c3c(ccc(Oc4cc(F)cc(C#N)c4)c3[C@@]1([2H])F)C(F)(F)C2(F)F` [Compound 21, 3-fluoro-5-(((1S,2aR)-1,3,3,4,4-pentafluoro-2a-hydroxy-2,2a,3,4-tetrahydro-1H-cyclopenta[cd]inden-7-yl-1,2,2-d3)oxy)benzonitrile], for which the half-maximal effective concentration (EC50) turned out to be 6 nM.

The assay is the same for the next values; noted with them: inhibition of VEGF expression in 786-O cells, ELISA of culture medium; read-out: EC50.
On to `C=C1CC2(O)c3c(ccc(Oc4cc(F)cc(C#N)c4)c31)C(F)(F)C2(F)F` (stereo not shown) [Compound 1, 3-fluoro-5-((3,3,4,4-tetrafluoro-2a-hydroxy-1-methylene-2,2a,3,4-tetrahydro-1H-cyclopenta[cd]inden-7-yl)oxy)benzonitrile], for which the EC50 was determined as 13 nM. On the same count and under the same terms, with `N#Cc1cc(F)cc(Oc2ccc3c4c2C(F)CC4(O)C(F)(F)C3(F)F)c1` (stereo not shown) [Compound 4, 3-fluoro-5-((1,3,3,4,4-pentafluoro-2a-hydroxy-2,2a,3,4-tetrahydro-1H-cyclopenta[cd]inden-7-yl)oxy)benzonitrile] the figure was 10 nM; with `N#Cc1cc(F)cc(Oc2ccc3c4c2[C@@H](F)C[C@]4(O)C(F)(F)C3(F)F)c1` [Compound 5, 3-fluoro-5-(((1S,2aR)-1,3,3,4,4-pentafluoro-2a-hydroxy-2,2a,3,4-tetrahydro-1H-cyclopenta[cd]inden-7-yl)oxy)benzonitrile], 6 nM; with `N#Cc1cc(F)cc(Oc2ccc3c4c2[C@H](F)C[C@]4(O)C(F)(F)C3(F)F)c1` [Compound 7, 3-fluoro-5-(((1R,2aR)-1,3,3,4,4-pentafluoro-2a-hydroxy-2,2a,3,4-tetrahydro-1H-cyclopenta[cd]inden-7-yl)oxy)benzonitrile], 2100 nM. With `OC12CC(F)c3c(Oc4cncc(F)c4)ccc(c31)C(F)(F)C2(F)F` (stereo not shown) [Compound 8, 1,3,3,4,4-pentafluoro-7-((5-fluoropyridin-3-yl)oxy)-1,2,3,4-tetrahydro-2aH-cyclopenta[cd]inden-2a-ol], the EC50 came to 320 nM. With `N#Cc1cc(F)cc(Oc2ccc3c4c2C2(CC2)CC4(O)C(F)(F)C3(F)F)c1` (stereo not shown) [Compound 9, 3-fluoro-5-((3,3,4,4-tetrafluoro-2a-hydroxy-2,2a,3,4-tetrahydrospiro[cyclopenta[cd]indene-1,1′-cyclopropan]-7-yl)oxy)benzonitrile], the 50% effective concentration (EC50) amounted to 170 nM.

In the case of `CC1CC2(O)c3c(ccc(Oc4cc(F)cc(C#N)c4)c31)C(F)(F)C2(F)F` (stereo not shown) [Compound 10, 3-fluoro-5-((3,3,4,4-tetrafluoro-2a-hydroxy-1-methyl-2,2a,3,4-tetrahydro-1H-cyclopenta[cd]inden-7-yl)oxy)benzonitrile], the EC50 stood at 410 nM. With `CC1(O)CC2(O)c3c(ccc(Oc4cc(F)cc(C#N)c4)c31)C(F)(F)C2(F)F` (stereo not shown) [Compound 11, 3-fluoro-5-((3,3,4,4-tetrafluoro-1,2a-dihydroxy-1-methyl-2,2a,3,4-tetrahydro-1H-cyclopenta[cd]inden-7-yl)oxy)benzonitrile], the EC50 is above 5000 nM. The same measure, in the same setting: with `CC1(F)CC2(O)c3c(ccc(Oc4cc(F)cc(C#N)c4)c31)C(F)(F)C2(F)F` (stereo not shown) [Compound 12, 3-fluoro-5-((1,3,3,4,4-pentafluoro-2a-hydroxy-1-methyl-2,2a,3,4-tetrahydro-1H-cyclopenta[cd]inden-7-yl)oxy)benzonitrile] the figure was 100 nM; with `N#Cc1cc(F)cc(Oc2ccc3c4c2CCC4(O)C(F)(F)C3(F)F)c1` (stereo not shown) [Compound 13, 3-fluoro-5-((3,3,4,4-tetrafluoro-2a-hydroxy-2,2a,3,4-tetrahydro-1H-cyclopenta[cd]inden-7-yl)oxy)benzonitrile], 330 nM. The same measure, in the same setting: with `N#Cc1cc(F)cc(Oc2ccc3c4c2C(F)CC4(N)C(F)(F)C3(F)F)c1` (stereo not shown) [Compound 14, 3-((2a-amino-1,3,3,4,4-pentafluoro-2,2a,3,4-tetrahydro-1H-cyclopenta[cd]inden-7-yl)oxy)-5-fluorobenzonitrile] the figure was 630 nM; with `N#Cc1cc(F)cc(Oc2ccc3c4c2C(F)(F)CC4(F)C(F)(F)C3(F)F)c1` (stereo not shown) [Compound 15, 3-fluoro-5-((1,1,2a,3,3,4,4-heptafluoro-2,2a,3,4-tetrahydro-1H-cyclopenta[cd]inden-7-yl)oxy)benzonitrile], above 5000 nM. Still for that read-out and setting: with `N#Cc1cc(F)cc(Oc2ccc3c4c2CC(F)(F)C4(O)CC3F)c1` (stereo not shown) [Compound 19, 3-fluoro-5-((1,3,3-trifluoro-2a-hydroxy-2,2a,3,4-tetrahydro-1H-cyclopenta[cd]inden-5-yl)oxy)benzonitrile] the figure was 4100 nM. In the case of `C=C1C[C@@]2(O)c3c(ccc(Oc4cc(F)cc(C#N)c4)c31)C(F)(F)C2(F)F` [Compound 23a, (R)-3-fluoro-5-((3,3,4,4-tetrafluoro-2a-hydroxy-1-methylene-2,2a,3,4-tetrahydro-1H-cyclopenta[cd]inden-7-yl)oxy)benzonitrile], the concentration giving a half-maximal response (EC50) stood at 7 nM.

Consider `N#Cc1cc(F)cc(Oc2ccc3c4c2[C@@H](F)[C@@H](F)[C@]4(O)C(F)(F)C3(F)F)c1` [Compound 24a, 3-fluoro-5-(((1R,2S,2aS)-1,2,3,3,4,4-hexafluoro-2a-hydroxy-2,2a,3,4-tetrahydro-1H-cyclopenta[cd]inden-7-yl)oxy)benzonitrile], for which the 50% effective concentration (EC50) was found to be 2 nM. Take `N#Cc1cc(F)cc(Oc2ccc3c4c2[C@@H](F)[C@H](F)[C@]4(O)C(F)(F)C3(F)F)c1` [Compound 24b, 3-fluoro-5-(((1R,2R,2aS)-1,2,3,3,4,4-hexafluoro-2a-hydroxy-2,2a,3,4-tetrahydro-1H-cyclopenta[cd]inden-7-yl)oxy)benzonitrile]: the EC50 was determined as 11 nM.

For a further assay, the target named is HIF-2α/ARNT dimerization (Homo sapiens (Human), UniProt Q99814). Briefly: Co-immunoprecipitation assay for inhibition of HIF-2α and ARNT dimerization in PASMC and HPAEC. The following applies: 0.01 μM, PASMC/HPAEC under hypoxia condition (1% O2). The format is cell-based. On the procedure:
FIG. 1 provides results of a co-immunoprecipitation assay for measuring inhibition of HIF-2α and ARNT dimerization in Primary Pulmonary Artery Smooth Muscle Cells (PASMC) and Human Pulmonary Artery Endothelial Cells (HPAEC).
Primary Pulmonary Artery Smooth Muscle Cells (PASMC, ATCC #PCS-100-023) were cultured in Vascular Cell Basal Medium (ATCC #PCS-100-030) supplemented with Vascular Smooth Muscle Cell Growth Kit (ATCC #PCS-100-042). Primary Pulmonary Artery Endothelial Cells (HPAEC, ATCC #PCS-100-022) were cultured in Vascular Cell Basal Medium (ATCC #PCS-100-030) supplemented with Endothelial Cell Growth Kit-BBE (ATCC #PCS-100-040). 0.5×10^6 cells were seeded into 6-well cell culture plates (Corning #3736) in 2 mL of media and cultured in a 37° C. cell culture incubator with atmospheric levels of oxygen and 5% CO2 overnight. The following day, cells were cultured in normoxia condition (atmospheric levels of oxygen and 5% CO2) or in hypoxia condition (1% O2 and 5% CO2) and treated with dimethyl sulfoxide (DMSO) or Compound 24a at 0.001, 0.01, 0.1, and 1 μM for 24 h.
After treatment, cells were washed with ice-cold PBS (containing compounds as in treatment step). […] Supernatant (cell lysate) was transferred to a new tube and protein concentration was measured by BCA protein assay. […]
Cell lysates were also analyzed by immunoblot (Western analysis). […]
For the compound `N#Cc1cc(F)cc(Oc2ccc3c4c2[C@@H](F)[C@@H](F)[C@]4(O)C(F)(F)C3(F)F)c1` [Compound 24a, 3-fluoro-5-(((1R,2S,2aS)-1,2,3,3,4,4-hexafluoro-2a-hydroxy-2,2a,3,4-tetrahydro-1H-cyclopenta[cd]inden-7-yl)oxy)benzonitrile], the “Disruption of HIF-2α/ARNT dimerization at 0.01 μM” value is reported as “efficiently disrupt the HIF-2α/ARNT dimerization”.

The same assay, now with this note: PASMC and HPAEC, 0.001, 0.01, 0.1 and 1 μM for 24 h, FIG. 1.
Take `N#Cc1cc(F)cc(Oc2ccc3c4c2[C@@H](F)[C@@H](F)[C@]4(O)C(F)(F)C3(F)F)c1` [Compound 24a, 3-fluoro-5-(((1R,2S,2aS)-1,2,3,3,4,4-hexafluoro-2a-hydroxy-2,2a,3,4-tetrahydro-1H-cyclopenta[cd]inden-7-yl)oxy)benzonitrile]: the “Disruption of HIF-2α/ARNT dimerization (HIF-2α protein co-precipitated with ARNT)” value is reported as “reduced in the lysate of cells treated with Compound 24a in a dose-dependent manner”.
